For data set [1], the system named is mice. Description: In vivo tolerability in mice, intraperitoneal injection.
The subject of data set [2] is mice. Conditions: cited from earlier work.
For data set [3] the following is noted: dogs, cited from earlier work.
Data set [4] is described as follows: Zinc binding by EGTA titration. Conditions: EGTA 7.3 mM, PAC-1 derivative 100 μM, Zn(OTf)2 titration, ex. 410 nm, em. 475 nm.
Data set [5] in a line: Pharmacokinetics in mice, 25 mg/kg IV injection or oral gavage. Format: in vivo, mouse. The settings on record: 25 mg/kg IV (n = 2).
The mark [6] stands for this setting: i.p. injection 200 mg/kg, graded mild, moderate, severe, or lethal.

Each structure is given as a SMILES string.

Regarding `C=CCc1cccc(/C=N/NC(=O)CN2CCN(C(=O)c3ccc(F)cc3)CC2)c1O` [Compound 7, N′-[2-Hydroxy-3-(2-propenyl)phenylmethylene]-4-(4-fluorobenzoyl)-1-piperazineacetohydrazide], the “mouse toxicity IP 200 mg/kg” value in data set [1] (setting [6]) is “moderate”.
With `O=C(CN1CCN(C(=O)c2ccc(C(F)(F)F)cc2)CC1)N/N=C/c1cc(F)ccc1O` [Compound 27, N′-(5-Fluoro-2-hydroxyphenylmethylene)-4-[4-(trifluoromethyl)benzoyl]-1-piperazineacetohydrazide], the “mouse toxicity IP 200 mg/kg” value in data set [1] (setting [6]) was “moderate”.
On the same count and under the same terms, as for `C=CCc1cc(F)cc(/C=N/NC(=O)CN2CCN(C(=O)c3ccccc3)CC2)c1O` [Compound 30, N′-[5-Fluoro-2-hydroxy-3-(2-propenyl)phenylmethylene]-4-benzoyl-1-piperazineacetohydrazide], the entry is “moderate”; as for `C=CCc1cc(F)cc(/C=N/NC(=O)CN2CCN(C(=O)c3ccc(F)cc3)CC2)c1O` [Compound 34, N′-[5-Fluoro-2-hydroxy-3-(2-propenyl)phenylmethylene]-4-(4-fluorobenzoyl)-1-piperazineacetohydrazide], “severe”.
Same read-out and setting: to `CCCc1cc(F)cc(/C=N/NC(=O)CN2CCN(C(=O)c3ccc(F)cc3)CC2)c1O` [Compound 43, N′-(5-Fluoro-2-hydroxy-3-propylphenylmethylene)-4-(4-fluorobenzoyl)-1-piperazineacetohydrazide] belongs “severe”.
In the case of `C=CCc1cccc(/C=N/NC(=O)CN2CCN(Cc3ccccc3)CC2)c1O` [PAC-1, Procaspase-Activating Compound 1], the “serum concentration achieved with few adverse events” value in data set [2] and in data set [3] was “approximately 10 μM” in each case. Besides, the maximum tolerated dose in data set [2] (intraperitoneal injection) is listed as 200 mg/kg. In addition, the “mouse toxicity IP 200 mg/kg” value in data set [1] (mouse, in vivo, ip, 200 mg/kg) was “severe”. Also, the in vivo half-life in data set [3] (IV administration) is given as 2.1 ± 0.3 h.
Turning to `O=C(CN1CCN(Cc2ccccc2)CC1)N/N=C/c1ccccc1` [PAC-1a], the “Zn^2+ Kd” value in data set [4] is “does not bind zinc”.
`C=CCc1cccc(/C=N/NC(=O)CN2CCN(Cc3ccc(S(N)(=O)=O)cc3)CC2)c1O` [S-PAC-1]: the “time post-treatment up to which compound is detectable in serum” value in data set [5] is 6 h.
